The source of these data is patent US7977342B2, “HCV inhibiting bi-cyclic pyrimidines” (Tibotec-Virco Virology BVBA, priority 2007, dated 2011).

pEC50: −log10 of the molar value.

This test concerns HCV replicons (HCV RNA replication) in Huh-7 luc/neo cells. Briefly: Stable replicon cell reporter assay (Huh-Luc, luciferase). The test is classed as cell-based. The settings on record: Hepatitis C virus, 72 h; Huh-Luc (Huh-7 luc/neo) cells, HCV type 1b NS3-NS5B replicon, luciferase readout, three days incubation. The source says:
The compounds of the present invention were examined for activity in the inhibition of HCV RNA replication in a cellular assay. […] The cellular assay was based on a bicistronic expression construct, as described by Lohmann et al. (1999) Science vol. 285 pp. 110-113 with modifications described by Krieger et al. (2001) Journal of Virology 75: 4614-4624, in a multi-target screening strategy. In essence, the method was as follows.
The assay utilized the stably transfected cell line Huh-7 luc/neo (hereafter referred to as Huh-Luc). This cell line harbored an RNA encoding a bicistronic expression construct comprising the wild type NS3-NS5B regions of HCV type 1b translated from an Internal Ribosome Entry Site (IRES) from encephalomyocarditis virus (EMCV), preceded by a reporter portion (FfL-luciferase), and a selectable marker portion (neo^R, neomycine phosphotransferase). The construct was bordered by 5′ and 3′ NTRs (non-translated regions) from HCV type 1b. Continued culture of the replicon cells in the presence of G418 (neo^R) was dependent on the replication of the HCV RNA. The stably transfected replicon cells that expressed HCV RNA, which replicated autonomously and to high levels, encoding inter alia luciferase, were used for screening the antiviral compounds.
The replicon cells were plated in 384 well plates in the presence of the test and control compounds which were added in various concentrations. Following an incubation of three days, HCV replication was measured by assaying luciferase activity (using standard luciferase assay substrates and reagents and a Perkin Elmer ViewLux™ ultraHTS microplate imager). Replicon cells in the control cultures had high luciferase expression in the absence of any inhibitor. The inhibitory activity of the compound on luciferase activity was monitored on the Huh-Luc cells, enabling a dose-response curve for each test compound. EC50 values were then calculated, which value represented the amount of the compound required to decrease by 50% the level of detected luciferase activity, or more specifically, the ability of the genetically linked HCV replicon RNA to replicate.
Take `NNC(=O)c1cnccc1Nc1nc(-c2cc(Cl)ccc2F)nc2c1CCC2` [Compound 58]: the pEC50 was 4.99.

`CC1CCc2nc(-c3cc(Cl)ccc3F)nc(Nc3ccncc3C(=O)O)c21` (centres unmarked) [Compound 49, 4-[2-(5-Chloro-2-fluorophenyl)-5-methyl-6,7-dihydro-5H-cyclopentapyrimidin-4-ylamino]-nicotinic acid] showed a pEC50 of 4.88.

`CC1(C)Cc2nc(-c3cc(Cl)ccc3F)nc(Nc3ccncc3C(N)=O)c2C1` [Compound 62, 4-[2-(5-Chloro-2-fluoro-phenyl)-6,6-dimethyl-6,7-dihydro-5H-cyclopentapyrimidin-4-ylamino]-nicotinamide] had a pEC50 of 6.10.

As for `CN(C)CCCNC(=O)c1cnccc1Nc1nc(-c2cc(Cl)ccc2F)nc2c1CCC2` [Compound 69], the pEC50 was 5.74.

On to `CNC(=O)c1cnccc1Nc1nc(-c2cc(Cl)ccc2F)nc2c1C(C)CC2` (centres unmarked) [Compound 47, 4-[2-(5-Chloro-2-fluorophenyl)-5-methyl-6,7-dihydro-5H-cyclopentapyrimidin-4-ylamino]-N-methyl-nicotinamide], for which the pEC50 was 4.56.

As for `CC1CCc2nc(-c3cc(Cl)ccc3F)nc(Nc3ccncc3C(N)=O)c21` (centres unmarked) [Compound 46], the pEC50 is 5.80.

`Cc1cnccc1Nc1nc(-c2cc(Cl)ccc2F)nn2cccc12` [Compound 80] showed a pEC50 of 5.24.

`C[C@H](O)CNC(=O)c1cnccc1Nc1nc(-c2cc(Cl)ccc2F)nc2c1CCCC2` [Compound 57] had a pEC50 of 4.62.

With `CNC(=O)c1cnccc1Nc1nc(-c2cc(Cl)ccc2F)nc2c1CCC2` [Compound 35], the pEC50 is 5.82.

Take `NC(=O)c1cnccc1Nc1nc(-c2cc(Cl)ccc2F)nc2c1CCC2` [Compound 21]: the pEC50 is 6.40.

On to `CCN(CC)CCNC(=O)c1cnccc1Nc1nc(-c2cc(Cl)ccc2F)nc2c1CCCC2` [Compound 59], for which the pEC50 is 5.70. This pEC50 lies 0.70 log units lower than the previous one.

As to `Cc1noc2nc(-c3cc(Cl)ccc3F)nc(Nc3ccncc3)c12` [Compound 8], the negative logarithm of the EC50 (pEC50) was 6.40.

Compound `Cc1cnccc1Nc1nc(-c2cc(Cl)ccc2F)nc2c1CCC2` [Compound 20] showed a negative logarithm of the EC50 (pEC50) of 6.15.

In turn, `CNC(=O)c1cnccc1Nc1nc(-c2cc(Cl)ccc2F)nc2c1CCCC2` [Compound 40] gave a pEC50 of 5.14.
